Assay results: patent US20080014211A1, “Methods to elicit, enhance and sustain immune responses against MHC class I-restricted epitopes, for prophylactic and therapeutic purposes” (priority 2006, published 2008)

Assays:
[1] = tested on: CD4+CD25+Fox P3+ T-regulatory cells; details: tumor bearing mice, one injection 100 mg/kg on Day 46, spleens day 49; p=0.02
Method: Control mice received either poyIC or saline.
Mice received one injection of cyclophosphamide (CTX, 100 mg/kg) on days 46 […]. On day 49, spleens were removed from 3 mice in each group and the percentage of CD25^+ and Fox P3^+ cells were calculated within the total CD4^+ population (FIG. 6).

[2] = tested on: HPV-16 transformed tumor cells; assay: Adjunctive therapy in late stage cancer, tumor progression (Example 10); format: in vivo, C57BL/6 mice; details: CTX 30 mg/kg Day 14, 18, immunization Day 20, 24, 34, 38, n=20
From the text: Tumor progression (FIG. 11, Panel A) and immune response (FIG. 11, Panel B) was compared to untreated tumor control mice (n=20).

[3] = tested on: HPV-16 transformed tumor cells; assay: Adjunctive therapy, survival (Kaplan-Meier) (Example 11); format: in vivo, C57BL/6 mice; details: two therapeutic cycles; Kaplan-Meier estimates; n=20
Method: The effect of adjunctive therapy on survival was also evaluated in C57BL/6 mice inoculated with 10^5 HPV-16 transformed tumor cells as described in Example 10. A second therapeutic cycle was administered in which animals received CTX (30 mg/kg) on Day 46 and 50 (n=20), immunization with E749-57 HPV peptide and dsRNA (25 μg/Day) in bilateral inguinal lymph nodes on Day 52, 56, 65, and 69 (n=20), or were treated with a combination of CTX and immunotherapy (n=20). Kaplan-Meier (product-limit) estimates of the survival function were obtained for each of the four conditions (Control, CTX Only, Immunotherapy Only and CTX/Immunotherapy Combined), as shown in FIG. 12. Log-Rank tests were used to compare the four survival curves.

[4] = tested on: HPV-16 transformed tumor cells; assay: Adjuvant efficacy: immunotherapy after primary tumor removal (Example 13); format: in vivo, C57BL/6 mice
Method: A separate cohort is left untreated and tumors are removed at day 20 using surgery or irradiated using conventional radiotherapy. […] Additional control arms are treated with CTX, radiotherapy or surgery but not immunized.

[5] = tested on: HPV-16 transformed tumor cells; assay: Neoadjuvant efficacy: immunotherapy prior to primary tumor treatment (Example 14); format: in vivo, C57BL/6 mice
Method: Then mice are treated with CTX (100 mg/kg) starting on day 30 or by radiotherapy, every other day until the animals reach complete remission (FIG. 15). A separate cohort has the tumor removed on day 30 but no treatment with CTX. The animals are then observed for tumor relapse.

[6] = tested on: HPV-16 transformed tumor cells; assay: Consolidation therapy: immunotherapy post chemotherapy (Example 15); format: in vivo, C57BL/6 mice; details: CTX 100 or 30 mg/kg on days 14 and 16
Method: The animals are rested for 7 days until the number of lymphocytes in the blood reaches normal levels. At that point, all animals show reduced disease or complete remission relative to pre-treatment stage. […] Additional control arms are treated with CTX or radiotherapy but not immunized.

[7] = tested on: CD4+/CD25+/FoxP3+ T regulatory cells; details: intraperitoneal 100 mg/kg; mice bearing HPV-16 transformed tumors
[8] = tested on: HPV-16 transformed tumor cells; assay: Adjunctive therapy: immunotherapy accompanying chemotherapy (Example 16); details: CTX 100 or 30 mg/kg on days 14 and 16
Method: C57BL/6 mice are inoculated subcutaneously with 10^5 HPV-16 transformed tumor cells on Day 0, and treated with CTX (100 or 30 mg/kg) on days 14 and 16 or treated by radiotherapy. […] Additional control arms are treated with CTX but not immunized.

SMILES: O=P1(N(CCCl)CCCl)NCCCO1 (centres unmarked) [cyclophosphamide]
- levels of T-regulatory cells (CD25+ Fox P3+ within total CD4+) in spleen [1]: significantly reduced levels
- tumor regression compared to untreated tumor controls [2]: did not significantly induce tumor regression
- median survival time [3]: 68 days
- remission after primary treatment ([4]; CTX 100 mg/kg from day 14 every other day): attain complete remission
- relapse without follow up immunotherapy ([4]; after complete remission): relapse in a significant number
- remission in unimmunized animals ([5]; CTX 100 mg/kg from day 30 every other day): attain partial or complete remission
- relapse in unimmunized animals ([5]; after CTX, radiotherapy or surgery): relapse in a significant number
- remission after treatment [6]: attain partial remission or complete remission within 10 days after treatment
- level of T-regs in spleen [7]: reduced
- level of T-regs in the tumor [7]: reduced
- remission after CTX treatment [8]: attain partial remission or complete remission within 20 days after CTX treatment
